Data: ChEMBL document CHEMBL1149100, “New 2,4-diamino-5-(2',5'-substituted benzyl)pyrimidines as potential drugs against opportunistic infections of AIDS and other immune disorders. Synthesis and species-dependent antifolate activity” (J Med Chem, 2004)
Converted amounts (≈) assume the structure as drawn.

Experiments:
Mycobacterium avium [1] = experiment: Concentration of compound required against Mycobacterium avium; Range is 2-32; assay type: functional, organism-based
Mycobacterium avium [2] = experiment: Minimum inhibitory concentration required for 90 percent inhibition of Mycobacterium avium isolate; assay type: functional
Mycobacterium avium [3] = experiment: Minimum inhibitory concentration required against Mycobacterium avium isolate from patient number MAC100; assay type: functional
Mycobacterium avium [4] = experiment: Minimum inhibitory concentration required against Mycobacterium avium isolate from patient number MAC101; assay type: functional
Mycobacterium avium [5] = experiment: Minimum inhibitory concentration required against Mycobacterium avium isolate from patient number MAC109; assay type: functional
Mycobacterium avium [6] = experiment: Minimum inhibitory concentration required against Mycobacterium avium isolate from patient number MAC16; assay type: functional
Mycobacterium avium [7] = experiment: Minimum inhibitory concentration required for 50 percent inhibition of Mycobacterium avium isolate; assay type: functional
Mycobacterium avium [8] = experiment: Minimum inhibitory concentration required against Mycobacterium avium isolate from patient number MAC108; assay type: functional
Dihydrofolate reductase [9] = biological target: T1, Dihydrofolate reductase (Mycobacterium avium, UniProt O30463)
T1 sequence (O30463 whole entry): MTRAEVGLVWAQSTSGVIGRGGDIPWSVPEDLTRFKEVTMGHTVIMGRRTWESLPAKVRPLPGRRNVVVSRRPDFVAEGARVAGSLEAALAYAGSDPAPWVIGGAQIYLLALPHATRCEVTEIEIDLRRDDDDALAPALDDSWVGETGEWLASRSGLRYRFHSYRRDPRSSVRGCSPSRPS
Description: Inhibitory concentration against dihydrofolate reductase of Mycobacterium avium

Mycobacterium avium [10] = experiment: Concentration of compound required against Mycobacterium avium; Range is 2-16 ug/mL; assay type: functional, organism-based
Mycobacterium avium [11] = experiment: Concentration of compound required against Mycobacterium avium; Range is 4-32; assay type: functional, organism-based
Dihydrofolate reductase [12] = biological target: T2, Dihydrofolate reductase (Rattus norvegicus, UniProt Q920D2)
T2 sequence (Q920D2 whole entry): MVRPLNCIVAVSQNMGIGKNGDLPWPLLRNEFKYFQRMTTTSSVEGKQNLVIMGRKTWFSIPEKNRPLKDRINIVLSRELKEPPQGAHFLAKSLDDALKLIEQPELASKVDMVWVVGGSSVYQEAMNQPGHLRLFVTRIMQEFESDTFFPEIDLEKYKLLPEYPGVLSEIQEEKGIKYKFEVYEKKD
Description: Inhibitory concentration against dihydrofolate reductase of rat liver

Dihydrofolate reductase [13] = biological target: T3, Dihydrofolate reductase (Pneumocystis carinii, UniProt P16184)
T3 sequence (P16184 whole entry): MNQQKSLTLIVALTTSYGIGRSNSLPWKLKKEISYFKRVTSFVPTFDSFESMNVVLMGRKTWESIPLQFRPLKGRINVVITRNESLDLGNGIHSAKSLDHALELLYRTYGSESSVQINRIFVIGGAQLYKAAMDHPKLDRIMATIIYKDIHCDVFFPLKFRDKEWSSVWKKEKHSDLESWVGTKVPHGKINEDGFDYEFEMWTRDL
Description: Inhibitory concentration against dihydrofolate reductace enzyme of Pneumocystis carinii

[14] = biological target: T4, Bifunctional dihydrofolate reductase-thymidylate synthase (Toxoplasma gondii, UniProt Q07422)
T4 sequence (Q07422 whole entry): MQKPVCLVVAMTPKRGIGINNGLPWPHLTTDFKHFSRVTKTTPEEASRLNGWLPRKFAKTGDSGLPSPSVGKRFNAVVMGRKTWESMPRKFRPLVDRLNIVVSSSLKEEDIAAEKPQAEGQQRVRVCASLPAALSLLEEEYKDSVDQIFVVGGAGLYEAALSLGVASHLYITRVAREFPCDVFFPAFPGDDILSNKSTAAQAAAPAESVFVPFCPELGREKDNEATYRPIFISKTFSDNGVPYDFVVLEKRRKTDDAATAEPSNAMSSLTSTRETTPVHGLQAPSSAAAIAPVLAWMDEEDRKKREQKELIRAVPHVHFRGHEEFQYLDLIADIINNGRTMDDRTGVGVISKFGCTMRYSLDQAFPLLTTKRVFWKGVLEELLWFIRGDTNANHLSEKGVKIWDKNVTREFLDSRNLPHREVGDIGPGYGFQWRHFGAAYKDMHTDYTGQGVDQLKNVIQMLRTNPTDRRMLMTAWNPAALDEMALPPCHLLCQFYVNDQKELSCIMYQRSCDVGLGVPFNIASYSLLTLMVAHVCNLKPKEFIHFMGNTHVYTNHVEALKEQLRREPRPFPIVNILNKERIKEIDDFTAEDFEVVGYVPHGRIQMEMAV

Mycobacterium avium [15] = experiment: Minimum inhibitory concentration required against Mycobacterium avium isolate from patient number MAC116; assay type: functional
Mycobacterium avium [16] = experiment: microbe, parasite or virus in culture
Mycobacterium avium [17] = experiment: Concentration of compound required against Mycobacterium aviumRange is 2-32; assay type: functional, organism-based

Structure (SMILES) | MIC90 (Mycobacterium avium [2]) [µg/mL] | MIC (Mycobacterium avium [3]) [µg/mL] | MIC (Mycobacterium avium [4]) [µg/mL] | MIC (Mycobacterium avium [5]) [µg/mL] | MIC (Mycobacterium avium [6]) [µg/mL] | MIC50 (Mycobacterium avium [7]) [µg/mL] | MIC (Mycobacterium avium [8]) [µg/mL] | IC50 (Dihydrofolate reductase [9]) [nM] | also measured
COc1ccc(C#CCCCCC(=O)O)cc1Cc1cnc(N)nc1N | 16 (≈ 45.1 µM) | 4 (≈ 11.3 µM) | 2 (≈ 5.64 µM) | 4 (≈ 11.3 µM) | 2 (≈ 5.64 µM) | 8 (≈ 22.6 µM) | > 32 |  | Concentration (Mycobacterium avium [1]): 32 µg/mL
COc1cc(Cc2cnc3nc(N)nc(N)c3c2C)cc(OC)c1 |  |  |  |  |  |  |  | 0.64 | 
CCCCCCOc1ccc(OC)c(Cc2cnc(N)nc2N)c1 |  | 32 (≈ 96.8 µM) | 32 (≈ 96.8 µM) | 32 (≈ 96.8 µM) | 32 (≈ 96.8 µM) |  | 32 (≈ 96.8 µM) |  | 
CCCCCCCOc1ccc(OC)c(Cc2cnc(N)nc2N)c1 | 8 (≈ 23.2 µM) | 8 (≈ 23.2 µM) | 4 (≈ 11.6 µM) | 8 (≈ 23.2 µM) | 8 (≈ 23.2 µM) | 8 (≈ 23.2 µM) | 8 (≈ 23.2 µM) |  | Concentration (Mycobacterium avium [10]): 16 µg/mL
COc1ccc(OCCCCCCCCC(=O)O)cc1Cc1cnc(N)nc1N | 8 (≈ 19.9 µM) | 8 (≈ 19.9 µM) | 2 (≈ 4.97 µM) | 4 (≈ 9.94 µM) | 2 (≈ 4.97 µM) | 4 (≈ 9.94 µM) | > 32 |  | Concentration (Mycobacterium avium [10]): 16 µg/mL
COc1ccc(C#CCCC(=O)O)cc1Cc1cnc(N)nc1N | 16 (≈ 49 µM) | 8 (≈ 24.5 µM) | 8 (≈ 24.5 µM) | 16 (≈ 49 µM) | 16 (≈ 49 µM) | 8 (≈ 24.5 µM) | 16 (≈ 49 µM) |  | Concentration (Mycobacterium avium [11]): 32 µg/mL
COc1ccc(OCCCCCCCC(=O)O)cc1Cc1cnc(N)nc1N | 8 (≈ 20.6 µM) | 8 (≈ 20.6 µM) | 4 (≈ 10.3 µM) | 2 (≈ 5.15 µM) | 2 (≈ 5.15 µM) | 4 (≈ 10.3 µM) | 32 (≈ 82.4 µM) |  | Concentration (Mycobacterium avium [1]): 32 µg/mL
COc1ccc(CCCOc2ccccc2C(=O)O)cc1Cc1cnc(N)nc1N |  |  |  |  |  |  |  | 310 | IC50 (Dihydrofolate reductase [12]): 25000 nM; IC50 (Dihydrofolate reductase [13]): 7800 nM; IC50 [14]: 710 nM
COc1ccc(C#Cc2cccc(C(=O)O)c2)cc1Cc1cnc(N)nc1N |  | > 64 | > 64 | > 64 | > 64 |  | > 64 | 1.5 | IC50 (Dihydrofolate reductase [12]): 650 nM; IC50 (Dihydrofolate reductase [13]): 23 nM; IC50 [14]: 5.5 nM
COc1ccc(OCc2cccc(C(=O)O)c2)cc1Cc1cnc(N)nc1N |  | > 32 | > 32 | > 32 | > 32 |  | > 32 |  | 
COc1ccc(/C=C/COc2ccccc2C(=O)O)cc1Cc1cnc(N)nc1N |  |  |  |  |  |  |  | 380 | IC50 (Dihydrofolate reductase [12]): 6400 nM; IC50 (Dihydrofolate reductase [13]): 8600 nM; IC50 [14]: 2500 nM
COc1ccc(C#CCCCC(=O)O)cc1Cc1cnc(N)nc1N | 16 (≈ 47 µM) | 8 (≈ 23.5 µM) | 4 (≈ 11.8 µM) | 16 (≈ 47 µM) | 8 (≈ 23.5 µM) | 8 (≈ 23.5 µM) | 32 (≈ 94 µM) |  | Concentration (Mycobacterium avium [11]): 32 µg/mL
COc1ccc(CCCCC(=O)O)cc1Cc1cnc(N)nc1N |  | > 32 | > 32 | > 32 |  |  | > 32 |  | MIC (Mycobacterium avium [15]): > 32 µg/mL
COc1ccc(C#Cc2ccccc2C(=O)O)cc1Cc1cnc(N)nc1N |  | > 64 | > 64 | > 64 |  |  | > 64 | 100 | IC50 (Dihydrofolate reductase [12]): 25000 nM; IC50 (Dihydrofolate reductase [13]): 4100 nM; IC50 [14]: 1900 nM; MIC (Mycobacterium avium [15]): > 64 µg/mL
COc1ccc(CCc2ccc(C(=O)O)cc2)cc1Cc1cnc(N)nc1N |  |  |  |  |  |  |  | 25 | IC50 (Dihydrofolate reductase [12]): 13000 nM; IC50 (Dihydrofolate reductase [13]): 7100 nM; IC50 [14]: 1500 nM
COc1ccc(C#Cc2ccc(C(=O)O)cc2)cc1Cc1cnc(N)nc1N |  | > 64 | > 64 | > 64 | > 64 |  | > 64 | 3.7 | IC50 (Dihydrofolate reductase [12]): 8200 nM; IC50 (Dihydrofolate reductase [13]): 1300 nM; IC50 [14]: 340 nM
COc1ccc(C#CCOc2ccccc2C(=O)O)cc1Cc1cnc(N)nc1N |  | > 32 | > 32 | > 32 | > 32 |  | > 32 |  | 
COc1ccc(OCCCC(=O)O)cc1Cc1cnc(N)nc1N |  | 16 (≈ 48.1 µM) | 16 (≈ 48.1 µM) | 32 (≈ 96.3 µM) | 32 (≈ 96.3 µM) |  | 16 (≈ 48.1 µM) |  | 
COc1ccc(CCCOc2cccc(C(=O)O)c2)cc1Cc1cnc(N)nc1N |  |  |  |  |  |  |  | 25 | IC50 (Dihydrofolate reductase [12]): 4000 nM; IC50 (Dihydrofolate reductase [13]): 1100 nM; IC50 [14]: 210 nM
Cc1ccc(Cl)cc1Cc1cnc2nc(N)nc(N)c2c1C |  |  |  |  |  |  |  | 0.19 | 
COc1ccc(OCc2ccc(C(=O)O)cc2)cc1Cc1cnc(N)nc1N |  | > 32 | > 32 | > 32 | > 32 |  | > 32 |  | 
COc1ccc(OCCCCCC(=O)O)cc1Cc1cnc(N)nc1N | 32 (≈ 88.8 µM) | 16 (≈ 44.4 µM) | 8 (≈ 22.2 µM) | 8 (≈ 22.2 µM) | 8 (≈ 22.2 µM) | 4 (≈ 11.1 µM) | 32 (≈ 88.8 µM) |  | Concentration (Mycobacterium avium [11]): 32 µg/mL
COc1ccc(CCCCCCC(=O)O)cc1Cc1cnc(N)nc1N |  | > 32 | 32 (≈ 89.3 µM) | 32 (≈ 89.3 µM) | 16 (≈ 44.6 µM) |  | > 32 |  | 
COc1cc(Cc2cnc(N)nc2N)cc(OC)c1OC [TRIMETHOPRIM] |  |  |  |  |  |  |  |  | MIC (Mycobacterium avium [16]): > 64 µg/mL
COc1ccc(C#CCOc2cccc(C(=O)O)c2)cc1Cc1cnc(N)nc1N |  | > 32 | > 32 | > 32 | > 32 |  | > 32 |  | 
COc1ccc(OCCCCC(=O)O)cc1Cc1cnc(N)nc1N | 32 (≈ 92.4 µM) | 16 (≈ 46.2 µM) | 16 (≈ 46.2 µM) | 16 (≈ 46.2 µM) | 16 (≈ 46.2 µM) | 16 (≈ 46.2 µM) | > 32 |  | 
COc1ccc(OCCCCCCC(=O)O)cc1Cc1cnc(N)nc1N | 32 (≈ 85.5 µM) | 16 (≈ 42.7 µM) | 8 (≈ 21.4 µM) | 8 (≈ 21.4 µM) | 16 (≈ 42.7 µM) | 4 (≈ 10.7 µM) | > 32 |  | Concentration (Mycobacterium avium [17]): 32 µg/mL
COc1ccc(CCCCCC(=O)O)cc1Cc1cnc(N)nc1N |  | 32 (≈ 92.9 µM) | 16 (≈ 46.5 µM) | 32 (≈ 92.9 µM) | 32 (≈ 92.9 µM) |  | > 32 |  | 
